{
  "source": "paper PMC5063900",
  "about": "“A phase 1 study of the safety, tolerability, pharmacokinetics, and pharmacodynamics of TAK-063, a selective PDE10A inhibitor” (Psychopharmacology, 2016)",
  "assay": "CNS Vital Signs (CNSVS) computerized cognition battery",
  "assay_type": "in vivo, human",
  "conditions": "2 h postdose, fasting",
  "protocol": "Cognitive flexibility, attention, executive function, memory, reasoning, motor control, psychomotor speed, reaction time, and information processing speed were assessed predose and at 2 and 6 h following TAK-063 treatment using the CNSVS computerized cognition battery. The CNSVS cognition battery is a well-validated, sensitive measure and included the following tests: verbal and visual memory (VBM and VIM) tests, finger-tapping test, symbol digit coding test, Stroop test, shifting attention test, the nonverbal reasoning test, and the 4-part continuous performance test (Gualtieri and Johnson [2006]). Standardized domain scores for cognitive flexibility, composite memory, executive functioning, processing speed, psychomotor speed, reaction time, reasoning, sustained attention, verbal memory, visual memory, and working memory were reported. In all domains, a decrease in the standardized domain score is indicative of impairment.\nAll statistical analyses were generated using SAS Version 9.2 (SAS, Cary, NC, USA). The PK parameters were derived using non-compartmental methods with WinNonlin Enterprise Version 6.3 (Pharsight Corp., Mountain View, CA, USA). Frequency or descriptive statistics were used for summary of data. Where indicated, percent coefficient of variation was included in the summary of continuous data. All statistical tests were 2-tailed at α = 0.05 level for significance unless otherwise stated. A power model was used to evaluate dose proportionality by race for fasted subjects; in the event of no observed race effect, dose proportionality was assessed for all subjects. To evaluate the food effect, a paired t test was performed on T max and natural log-transformed C max, and AUCs. An ANCOVA model with baseline scores and race as covariates was used to assess the effects of TAK-063 on CNSVS domain scores.",
  "data": [
    {"smiles": "COc1cn(-c2ccc(-n3cccn3)cc2F)nc(-c2ccnn2-c2ccccc2)c1=O", "note": "[TAK-063]", "values": [
      {"measurement": "Cognitive flexibility domain score, Difference (TAK-063 LS mean - placebo LS mean, change from baseline)", "setting": "3 mg", "result": 1.3},
      {"measurement": "Composite memory domain score, Difference (TAK-063 LS mean - placebo LS mean, change from baseline)", "setting": "3 mg", "result": -7.9},
      {"measurement": "Executive functioning domain score, Difference (TAK-063 LS mean - placebo LS mean, change from baseline)", "setting": "3 mg", "result": 0.4},
      {"measurement": "Processing speed domain score, Difference (TAK-063 LS mean - placebo LS mean, change from baseline)", "setting": "3 mg", "result": 2.2},
      {"measurement": "Psychomotor speed domain score, Difference (TAK-063 LS mean - placebo LS mean, change from baseline)", "setting": "3 mg", "result": -1.5},
      {"measurement": "Reaction time domain score, Difference (TAK-063 LS mean - placebo LS mean, change from baseline)", "setting": "3 mg", "result": 4.1},
      {"measurement": "Reasoning domain score, Difference (TAK-063 LS mean - placebo LS mean, change from baseline)", "setting": "3 mg", "result": 5.7},
      {"measurement": "Sustained attention domain score, Difference (TAK-063 LS mean - placebo LS mean, change from baseline)", "setting": "3 mg", "result": 4.6},
      {"measurement": "Verbal memory domain score, Difference (TAK-063 LS mean - placebo LS mean, change from baseline)", "setting": "3 mg", "result": 0.9},
      {"measurement": "Visual memory domain score, Difference (TAK-063 LS mean - placebo LS mean, change from baseline)", "setting": "3 mg", "result": -10.3},
      {"measurement": "Working memory domain score, Difference (TAK-063 LS mean - placebo LS mean, change from baseline)", "setting": "3 mg", "result": 5.3},
      {"measurement": "Cognitive flexibility domain score, Difference (TAK-063 LS mean - placebo LS mean, change from baseline)", "setting": "10 mg", "result": -3.1},
      {"measurement": "Composite memory domain score, Difference (TAK-063 LS mean - placebo LS mean, change from baseline)", "setting": "10 mg", "result": -5.2},
      {"measurement": "Executive functioning domain score, Difference (TAK-063 LS mean - placebo LS mean, change from baseline)", "setting": "10 mg", "result": -2.7},
      {"measurement": "Processing speed domain score, Difference (TAK-063 LS mean - placebo LS mean, change from baseline)", "setting": "10 mg", "result": 0.7},
      {"measurement": "Psychomotor speed domain score, Difference (TAK-063 LS mean - placebo LS mean, change from baseline)", "setting": "10 mg", "result": -8.5},
      {"measurement": "Reaction time domain score, Difference (TAK-063 LS mean - placebo LS mean, change from baseline)", "setting": "10 mg", "result": -2.3},
      {"measurement": "Reasoning domain score, Difference (TAK-063 LS mean - placebo LS mean, change from baseline)", "setting": "10 mg", "result": 10.8},
      {"measurement": "Sustained attention domain score, Difference (TAK-063 LS mean - placebo LS mean, change from baseline)", "setting": "10 mg", "result": 0.7},
      {"measurement": "Verbal memory domain score, Difference (TAK-063 LS mean - placebo LS mean, change from baseline)", "setting": "10 mg", "result": -4.0},
      {"measurement": "Visual memory domain score, Difference (TAK-063 LS mean - placebo LS mean, change from baseline)", "setting": "10 mg", "result": -3.3},
      {"measurement": "Working memory domain score, Difference (TAK-063 LS mean - placebo LS mean, change from baseline)", "setting": "10 mg", "result": 1.1},
      {"measurement": "Cognitive flexibility domain score, Difference (TAK-063 LS mean - placebo LS mean, change from baseline)", "setting": "30 mg", "result": 0.2},
      {"measurement": "Composite memory domain score, Difference (TAK-063 LS mean - placebo LS mean, change from baseline)", "setting": "30 mg", "result": 2.8},
      {"measurement": "Executive functioning domain score, Difference (TAK-063 LS mean - placebo LS mean, change from baseline)", "setting": "30 mg", "result": 0.5},
      {"measurement": "Processing speed domain score, Difference (TAK-063 LS mean - placebo LS mean, change from baseline)", "setting": "30 mg", "result": 4.3},
      {"measurement": "Psychomotor speed domain score, Difference (TAK-063 LS mean - placebo LS mean, change from baseline)", "setting": "30 mg", "result": -1.7},
      {"measurement": "Reaction time domain score, Difference (TAK-063 LS mean - placebo LS mean, change from baseline)", "setting": "30 mg", "result": 3.1},
      {"measurement": "Reasoning domain score, Difference (TAK-063 LS mean - placebo LS mean, change from baseline)", "setting": "30 mg", "result": 6.4},
      {"measurement": "Sustained attention domain score, Difference (TAK-063 LS mean - placebo LS mean, change from baseline)", "setting": "30 mg", "result": 10.3},
      {"measurement": "Verbal memory domain score, Difference (TAK-063 LS mean - placebo LS mean, change from baseline)", "setting": "30 mg", "result": 12.4},
      {"measurement": "Visual memory domain score, Difference (TAK-063 LS mean - placebo LS mean, change from baseline)", "setting": "30 mg", "result": -5.2},
      {"measurement": "Working memory domain score, Difference (TAK-063 LS mean - placebo LS mean, change from baseline)", "setting": "30 mg", "result": 6.5},
      {"measurement": "Cognitive flexibility domain score, Difference (TAK-063 LS mean - placebo LS mean, change from baseline)", "setting": "100 mg", "result": -20.2},
      {"measurement": "Composite memory domain score, Difference (TAK-063 LS mean - placebo LS mean, change from baseline)", "setting": "100 mg", "result": -24.1},
      {"measurement": "Executive functioning domain score, Difference (TAK-063 LS mean - placebo LS mean, change from baseline)", "setting": "100 mg", "result": -17.8},
      {"measurement": "Processing speed domain score, Difference (TAK-063 LS mean - placebo LS mean, change from baseline)", "setting": "100 mg", "result": -6.1},
      {"measurement": "Psychomotor speed domain score, Difference (TAK-063 LS mean - placebo LS mean, change from baseline)", "setting": "100 mg", "result": -15.2},
      {"measurement": "Reaction time domain score, Difference (TAK-063 LS mean - placebo LS mean, change from baseline)", "setting": "100 mg", "result": -15.6},
      {"measurement": "Reasoning domain score, Difference (TAK-063 LS mean - placebo LS mean, change from baseline)", "setting": "100 mg", "result": 4.6},
      {"measurement": "Sustained attention domain score, Difference (TAK-063 LS mean - placebo LS mean, change from baseline)", "setting": "100 mg", "result": -7.0},
      {"measurement": "Verbal memory domain score, Difference (TAK-063 LS mean - placebo LS mean, change from baseline)", "setting": "100 mg", "result": -24.0},
      {"measurement": "Visual memory domain score, Difference (TAK-063 LS mean - placebo LS mean, change from baseline)", "setting": "100 mg", "result": -15.4},
      {"measurement": "Working memory domain score, Difference (TAK-063 LS mean - placebo LS mean, change from baseline)", "setting": "100 mg", "result": -3.8},
      {"measurement": "Cognitive flexibility domain score, Difference (TAK-063 LS mean - placebo LS mean, change from baseline)", "setting": "300 mg", "result": -30.9},
      {"measurement": "Composite memory domain score, Difference (TAK-063 LS mean - placebo LS mean, change from baseline)", "setting": "300 mg", "result": -26.9},
      {"measurement": "Executive functioning domain score, Difference (TAK-063 LS mean - placebo LS mean, change from baseline)", "setting": "300 mg", "result": -29.0},
      {"measurement": "Processing speed domain score, Difference (TAK-063 LS mean - placebo LS mean, change from baseline)", "setting": "300 mg", "result": -17.6},
      {"measurement": "Psychomotor speed domain score, Difference (TAK-063 LS mean - placebo LS mean, change from baseline)", "setting": "300 mg", "result": -18.0},
      {"measurement": "Reaction time domain score, Difference (TAK-063 LS mean - placebo LS mean, change from baseline)", "setting": "300 mg", "result": -10.3},
      {"measurement": "Reasoning domain score, Difference (TAK-063 LS mean - placebo LS mean, change from baseline)", "setting": "300 mg", "result": 0.5},
      {"measurement": "Sustained attention domain score, Difference (TAK-063 LS mean - placebo LS mean, change from baseline)", "setting": "300 mg", "result": -9.0},
      {"measurement": "Verbal memory domain score, Difference (TAK-063 LS mean - placebo LS mean, change from baseline)", "setting": "300 mg", "result": -26.7},
      {"measurement": "Visual memory domain score, Difference (TAK-063 LS mean - placebo LS mean, change from baseline)", "setting": "300 mg", "result": -17.2},
      {"measurement": "Working memory domain score, Difference (TAK-063 LS mean - placebo LS mean, change from baseline)", "setting": "300 mg", "result": -3.1},
      {"measurement": "Cognitive flexibility domain score, Difference (TAK-063 LS mean - placebo LS mean, change from baseline)", "setting": "1000 mg", "result": -19.6},
      {"measurement": "Composite memory domain score, Difference (TAK-063 LS mean - placebo LS mean, change from baseline)", "setting": "1000 mg", "result": -16.6},
      {"measurement": "Executive functioning domain score, Difference (TAK-063 LS mean - placebo LS mean, change from baseline)", "setting": "1000 mg", "result": -16.6},
      {"measurement": "Processing speed domain score, Difference (TAK-063 LS mean - placebo LS mean, change from baseline)", "setting": "1000 mg", "result": -17.9},
      {"measurement": "Psychomotor speed domain score, Difference (TAK-063 LS mean - placebo LS mean, change from baseline)", "setting": "1000 mg", "result": -18.7},
      {"measurement": "Reaction time domain score, Difference (TAK-063 LS mean - placebo LS mean, change from baseline)", "setting": "1000 mg", "result": -7.1},
      {"measurement": "Reasoning domain score, Difference (TAK-063 LS mean - placebo LS mean, change from baseline)", "setting": "1000 mg", "result": -0.5},
      {"measurement": "Sustained attention domain score, Difference (TAK-063 LS mean - placebo LS mean, change from baseline)", "setting": "1000 mg", "result": -5.0},
      {"measurement": "Verbal memory domain score, Difference (TAK-063 LS mean - placebo LS mean, change from baseline)", "setting": "1000 mg", "result": -10.0},
      {"measurement": "Visual memory domain score, Difference (TAK-063 LS mean - placebo LS mean, change from baseline)", "setting": "1000 mg", "result": -14.5},
      {"measurement": "Working memory domain score, Difference (TAK-063 LS mean - placebo LS mean, change from baseline)", "setting": "1000 mg", "result": -2.5}
    ]}
  ]
}
